“Also recorded” adds a separate entry of the source.
Columns and labels:
[1] = test system: syngeneic colon carcinoma cell line CT26; assay: CT26 syngeneic tumor model, Debio 1143 pretreatment then anti-PD-1 (Example 4); type: in vivo, BALB/c mice
Method: Five groups (n=8) of adult female BALB/c mice (obtained from Shanghai Lingchang Bio-Technology Co.) were inoculated in the right lower flank with 0.5×10^6 cells of the syngeneic colon carcinoma cell line CT26. When average tumor size reached about 50 mm^3 (day 1), animals received either pretreatment consisting of p.o. SMAC mimetic Debio 1143 (Debiopharm) at a dose of 100 mg/kg or vehicle as indicated in Table 3a. The dosing was repeated on each day for 7 days (day 1-7). […] Another set of two groups (vehicle- and Debio 1143-pretreated animals) received biweekly i.p. 10 mg/kg of anti-PD-1 antibody (Mouse surrogate antibody, anti-mouse PD-1, Clone: RMP1-14, BioXcell). A final group of Debio 1143-pretreated animals received both anti-PD-1 antibody as well as was continued on daily Debio 1143. Tumor volumes and body weights were assessed trice weekly. Tumor size was measured in two dimensions using a caliper, and the volume was expressed in mm^3 using the formula: V=0.5 a×b^2 where a and b are the long and short diameters of the tumor, respectively.

CD8+ T-lymphocytes = assay: immunohistochemistry of tumor biopsies before and after Debio 1143, CD8 staining; type: in vivo, human; settings: head & neck cancer patients, n=12; 200 mg Debio 1143 p.o. daily day 1 to 15; biopsy after vs before treatment
Method: (§1) The study enrolled adult patients with newly diagnosed histologically proven squamous cell carcinoma of the oral cavity, oropharynx, hypopharynx or larynx. During a screening period of two weeks (days −14 to −1), a tumor biopsy was taken and analyzed. Treatment was from day 1 to day 15 (+/−2 days) and consisted (in one arm) of daily administration p.o. of 200 mg Debio 1143. At the end of this treatment period, a second tumor biopsy was taken and analyzed, and the patients underwent surgery. T cells were identified using CD3 rabbit mAb 2GV6 from Ventana Roche (provided as a ready-to-use solution). Slides were processed on a Ventana Benchmark Ultra automaton. Exposure to antibody was 20 min. Pretreatment of the slides (64 min) was with cell conditioning solution CC1 (Ventana); the Optiview system (Ventana) (chromogen: DAB) was employed for visualization of the signal. Staining of CD8 and CD4 T cells was by the same protocol. The CD8 antibody was the SP57 rabbit mAb, and the CD4 antibody was the SP35 rabbit mAb. Both antibodies were from Ventana Roche and were provided as ready-to-use solutions. The antibody selected for PD-1 detection was the NAT105 mouse mAb that was also provided as a ready-to-use solution (Cell Marque). The protocol for PD-1 detection was the same as that used for CD3 staining, except that antibody exposure and pretreatment times were each 16 min.

PD-1 = assay: immunohistochemistry of tumor biopsies before and after Debio 1143, PD-1 staining; type: in vivo, human; settings: head & neck cancer patients, n=12; 200 mg Debio 1143 p.o. daily day 1 to 15; biopsy after vs before treatment
Method: as §1

cIAP1 = target: T1, cIAP1 (Homo sapiens, UniProt Q13490); assay: immunohistochemistry of tumor biopsies before and after Debio 1143, cIAP1 staining; type: in vivo; settings: head & neck cancer patients, n=12; 200 mg Debio 1143 p.o. daily day 1 to 15; biopsy after vs before treatment
T1 construct: from tissue; host or cells: tumor biopsies of patients with squamous cell carcinoma of the head and neck
Method: (§2) The study enrolled adult patients with newly diagnosed histologically proven squamous cell carcinoma of the oral cavity, oropharynx, hypopharynx or larynx. During a screening period of two weeks (days −14 to −1), a tumor biopsy was taken and analyzed. Treatment was from day 1 to day 15 (+/−2 days) and consisted (in one arm) of daily administration p.o. of 200 mg Debio 1143. At the end of this treatment period, a second tumor biopsy was taken and analyzed, and the patients underwent surgery. Biopsies were analyzed by immunohistochemical methods. Staining for cIAP1 was carried out using a Dako autostainer automaton (Agilent). The EPR4673 […] mAb (Abcam) was utilized at a 1/100 dilution, and tissue slides were exposed to the antibody for 20 min. Pretreatment of the slides was with EnVision FLEX Target Retrieval Solution, Low pH; the EnVision FLEX system (chromogen: DAB) was employed for visualization of the signal. EnVision Flex system and reagent were from Agilent. The same protocol was applied for PD-L1 staining. The E1 L3N rabbit mAb (Cell Signaling Technology) was used at a 1/500 dilution.

CD4+ T-lymphocytes = assay: immunohistochemistry of tumor biopsies before and after Debio 1143, CD4 staining; type: in vivo, human; settings: head & neck cancer patients, n=12; 200 mg Debio 1143 p.o. daily day 1 to 15; biopsy after vs before treatment
Method: as §1

[2] = test system: syngeneic colon carcinoma cell line MC38; assay: MC38 syngeneic tumor model, Debio 1143 pretreatment then anti-PD-L1 (Example 2); type: in vivo, C57BL/6J mice
Method: Five groups (n=8) of adult female C57BL/6J mice (obtained from Shanghai Lingchang Bio-Technology Co.) were inoculated in the right lower flank with 1×10^6 cells of the syngeneic colon carcinoma cell line MC38. When average tumor size reached about 50 mm^3 (day 1), animals received either pretreatment consisting of p.o. SMAC mimetic Debio 1143 (Debiopharm) at a dose of 100 mg/kg or vehicle as indicated in Table 1. The dosing was repeated on each day for 7 days (day 1-7). On the subsequent day (day 8), animals of a vehicle-treated group and a Debio 1143-pretreated group were given i.p. 10 mg/kg of control antibody rlgG2b (Clone: LTF-2, BioXcell). Control antibody was administered twice weekly until the end of the study. Another set of two groups (vehicle- and Debio 1143-pretreated animals) received i.p. 10 mg/kg of anti-PD-L1 antibody (Mouse surrogate antibody, anti-mouse PD-L1, Clone: 10F.9G2, BioXcell). Administration was repeated twice weekly as for the control antibody. A final group of Debio 1143-pretreated animals received both anti-PD-L1 antibody as well as was continued on daily Debio 1143. Tumor volumes and body weights were assessed trice weekly. Tumor size was measured in two dimensions using a caliper, and the volume was expressed in mm^3 using the formula: V=0.5 a×b^2 where a and b are the long and short diameters of the tumor, respectively.

PD-L1 = assay: immunohistochemistry of tumor biopsies before and after Debio 1143, PD-L1 staining; type: in vivo, human; settings: head & neck cancer patients, n=12; 200 mg Debio 1143 p.o. daily day 1 to 15; biopsy after vs before treatment
Method: as §2

T1 sequence (Q13490 whole entry): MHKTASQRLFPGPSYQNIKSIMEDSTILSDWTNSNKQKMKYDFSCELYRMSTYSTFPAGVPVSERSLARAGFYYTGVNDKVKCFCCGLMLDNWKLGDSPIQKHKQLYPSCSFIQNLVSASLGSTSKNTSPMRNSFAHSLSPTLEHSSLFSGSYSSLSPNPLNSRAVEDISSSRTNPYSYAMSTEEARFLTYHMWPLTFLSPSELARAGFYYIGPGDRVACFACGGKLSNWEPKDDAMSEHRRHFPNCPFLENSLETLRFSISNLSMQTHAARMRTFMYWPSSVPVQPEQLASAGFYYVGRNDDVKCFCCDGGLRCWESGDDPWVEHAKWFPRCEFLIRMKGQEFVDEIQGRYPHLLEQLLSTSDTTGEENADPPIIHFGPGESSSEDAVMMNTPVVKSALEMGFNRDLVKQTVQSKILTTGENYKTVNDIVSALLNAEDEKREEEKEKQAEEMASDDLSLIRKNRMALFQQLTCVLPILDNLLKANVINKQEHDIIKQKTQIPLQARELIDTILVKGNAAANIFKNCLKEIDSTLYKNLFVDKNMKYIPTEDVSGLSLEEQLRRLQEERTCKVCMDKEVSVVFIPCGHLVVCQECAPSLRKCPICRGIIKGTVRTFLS

For CN[C@@H](C)C(=O)N[C@H]1CN(C(=O)CC(C)C)CC[C@H]2CC[C@@H](C(=O)NC(c3ccccc3)c3ccccc3)N2C1=O [Debio 1143], the “anti-cancer effect (median tumor volume)” value ([1]; Debio 1143 100 mg/kg p.o. QD day 1-7 pretreatment alone, then oral vehicle (group 3)) was “modest anti-cancer effect”, the “anti-cancer effect (median tumor volume)” value ([1]; Debio 1143 100 mg/kg p.o. QD day 1-7 pretreatment, then anti-PD-1 10 mg/kg i.p. BIW (group 4)) was “small additional benefit to Debio 1143 pretreatment alone; also recorded: sensitizes CT26 tumors to a subsequent treatment with an anti-PD-1 antibody” and the “anti-cancer effect (median tumor volume)” value ([1]; Debio 1143 pretreatment, then anti-PD-1 plus continued daily Debio 1143 (group 5)) was “significant additional benefit”. For the same compound, the “number of CD8+ T cells in the tumor microenvironment” value (CD8+ T-lymphocytes) was “increase in CD8+ T cell number being significant; also recorded: increases the number”, the “percentage / number of immune cells expressing PD-1 in tumor” value (PD-1) was “increased significantly; also recorded: increases the number” and the “levels of cIAP1 in the tumors” value (cIAP1) was “reduced levels of cIAP1 in the tumors of most patients; also recorded: induces the degradation of cIAP1”. For the same compound, the “number of CD4+ T cells in the tumor microenvironment” value (CD4+ T-lymphocytes) was “both increased; also recorded: increases the number”, the “anti-cancer effect (median tumor volume)” value ([2]; Debio 1143 100 mg/kg p.o. QD day 1-7 pretreatment alone, then control antibody rlgG2b (group 2)) was “modest anti-cancer effect” and the “anti-cancer effect (median tumor volume)” value ([2]; Debio 1143 100 mg/kg p.o. QD day 1-7 pretreatment, then anti-PD-L1 10 mg/kg i.p. BIW (group 4)) was “profound anti-cancer effect; also recorded: sensitizes MC38 tumors to a subsequent treatment with an anti-PD-L1 antibody”. The “anti-cancer effect (median tumor volume)” value ([2]; Debio 1143 pretreatment day 1-7, then anti-PD-L1 plus continued daily Debio 1143 (group 5), compared with group 4) was “small additional benefit”, the “frequency / number of PD-L1-expressing tumor cells” value (PD-L1) was “also increased; also recorded: increases the number” and the “percentage / number of immune cells expressing PD-L1 in tumor” value (PD-L1) was “increased significantly; also recorded: increases the number”.

Source: patent US20210093645A1, “COMBINATION ANTI CANCER THERAPY WITH AN IAP ANTAGONIST AND AN ANTI PD-1 MOLECULE” (Debiopharm International S.A., priority 2017, published 2021)
